Reference: ChEMBL document CHEMBL5126613, “Novel CA(1-7)M(2-9) Analogs: Synthesis, Characterization, and Antibacterial Evaluation” (ACS Med Chem Lett, 2022)
≈ marks a conversion by molar mass, not a printed value. Bridge positions count the residues as written; N and C are the ends. Peptide text beside a SMILES is read from it.

Columns and labels:
[1] = system: Escherichia coli; assay: Antibacterial activity against Escherichia coli ATCC 25922 assessed as reduction in bacterial growth measured for 18 to 20 hrs by microbroth dilution method; type: functional; conditions: time 18-20 hrs
[2] = system: Pseudomonas aeruginosa; assay: Antibacterial activity against Pseudomonas aeruginosa ATCC 27853 assessed as reduction in bacterial growth measured for 18 to 20 hrs by microbroth dilution method; type: functional; conditions: time 18-20 hrs
[3] = system: Staphylococcus aureus; assay: Antibacterial activity against Staphylococcus aureus ATCC 29213 assessed as reduction in bacterial growth measured for 18 to 20 hrs by microbroth dilution method; type: functional; conditions: time 18-20 hrs
[4] = system: Bacillus subtilis; assay: Antibacterial activity against Bacillus subtilis ATCC 6051 assessed as reduction in bacterial growth measured for 18 to 20 hrs by microbroth dilution method; type: functional; conditions: time 18-20 hrs
[5] = system: Erythrocyte; assay: Hemolytic activity in sheep RBC assessed as hemolysis at 1000 ug/ml incubated for 30 mins by microplate reader method; type: toxicity, cell-based, Ovis aries; conditions: 0.5 h, dose 1000 µg/ml
[6] = Hemolytic activity in sheep RBC assessed as 50% hemolysis incubated for 30 mins by microplate reader method; type: toxicity, cell-based, Ovis aries, Erythrocyte; conditions: sheep red blood cells (erythrocytes)
[7] = Selectivity index, ratio of HC50 for hemolytic activity in sheep RBC assessed as 50% hemolysis incubated for 30 mins by microplate reader method to MIC for antibacterial activity against Escherichia coli ATCC 25922 assessed as reduction in bacterial growth measured for 18 to 20 hrs by microbroth dilution method; type: toxicity; conditions: sheep red blood cells (erythrocytes), read-out: Selectivity Index
[8] = Selectivity index, ratio of HC50 for hemolytic activity in sheep RBC assessed as 50% hemolysis incubated for 30 mins by microplate reader method to MIC for antibacterial activity against Pseudomonas aeruginosa ATCC 27853 assessed as reduction in bacterial growth measured for 18 to 20 hrs by microbroth dilution method; type: toxicity; conditions: sheep red blood cells (erythrocytes), read-out: Selectivity Index
[9] = Selectivity index, ratio of HC50 for hemolytic activity in sheep RBC assessed as 50% hemolysis incubated for 30 mins by microplate reader method to MIC for antibacterial activity against Staphylococcus aureus ATCC 29213 assessed as reduction in bacterial growth measured for 18 to 20 hrs by microbroth dilution method; type: toxicity; conditions: sheep red blood cells (erythrocytes), read-out: Selectivity Index
[10] = Selectivity index, ratio of HC50 for hemolytic activity in sheep RBC assessed as 50% hemolysis incubated for 30 mins by microplate reader method to MIC for antibacterial activity against Bacillus subtilis ATCC 6051 assessed as reduction in bacterial growth measured for 18 to 20 hrs by microbroth dilution method; type: toxicity; conditions: sheep red blood cells (erythrocytes), read-out: Selectivity Index
[11] = biological target: T1, Trypsin (Homo sapiens, UniProt P07477+P07478+P35030); assay: Stability of compound assessed as trypsin (unknown origin) mediated compound degradation by measuring H-O1WO3LFO6O7IGAVLO13VL-NH2 level measured at 15 mins by LCMS analysis; type: protein assay
[12] = biological target: T1, Trypsin; assay: Stability of compound assessed as trypsin (unknown origin) mediated compound degradation by measuring H-O1WO3LFO6O7IGAVLO13VL-NH2 level measured at 60 mins by LCMS analysis; type: protein assay
[13] = biological target: T1, Trypsin; assay: Stability of compound assessed as trypsin (unknown origin) mediated compound degradation by measuring H-O1WO3LFO6O7IGAVLO13VL-NH2 level measured at 120 mins by LCMS analysis; type: protein assay
[14] = biological target: T1, Trypsin; assay: Stability of compound assessed as trypsin (unknown origin) mediated compound degradation by measuring H-O1WO3LFO6O7IGAVLO13VL-NH2 level measured at 270 mins by LCMS analysis; type: protein assay
[15] = biological target: T1, Trypsin; assay: Stability of compound assessed as trypsin (unknown origin) mediated compound degradation by measuring H-WO3LFO6-OH level measured at 15 mins by LCMS analysis; type: protein assay
[16] = biological target: T1, Trypsin; assay: Stability of compound assessed as trypsin (unknown origin) mediated compound degradation by measuring H-WO3LFO6-OH level measured at 60 mins by LCMS analysis; type: protein assay
[17] = biological target: T1, Trypsin; assay: Stability of compound assessed as trypsin (unknown origin) mediated compound degradation by measuring H-WO3LFO6-OH level measured at 120 mins by LCMS analysis; type: protein assay
[18] = biological target: T1, Trypsin; assay: Stability of compound assessed as trypsin (unknown origin) mediated compound degradation by measuring H-WO3LFO6-OH level measured at 270 mins by LCMS analysis; type: protein assay
[19] = biological target: T1, Trypsin; assay: Stability of compound assessed as trypsin (unknown origin) mediated compound degradation by measuring H-O1WO3LFO6O7IGAVLO13-OH level measured at 60 mins by LCMS analysis; type: protein assay
[20] = biological target: T1, Trypsin; assay: Stability of compound assessed as trypsin (unknown origin) mediated compound degradation by measuring H-O1WO3LFO6O7IGAVLO13-OH level measured at 120 mins by LCMS analysis; type: protein assay
[21] = biological target: T1, Trypsin; assay: Stability of compound assessed as trypsin (unknown origin) mediated compound degradation by measuring H-O1WO3LFO6O7IGAVLO13-OH level measured at 270 mins by LCMS analysis; type: protein assay
[22] = biological target: T1, Trypsin; assay: Stability of compound assessed as trypsin (unknown origin) mediated compound degradation by measuring H-O7IGAVLO13VL-NH2 level measured at 60 mins by LCMS analysis; type: protein assay
[23] = biological target: T1, Trypsin; assay: Stability of compound assessed as trypsin (unknown origin) mediated compound degradation by measuring H-O7IGAVLO13VL-NH2 level measured at 120 mins by LCMS analysis; type: protein assay
[24] = biological target: T1, Trypsin; assay: Stability of compound assessed as trypsin (unknown origin) mediated compound degradation by measuring H-O7IGAVLO13VL-NH2 level measured at 270 mins by LCMS analysis; type: protein assay
[25] = biological target: T1, Trypsin; assay: Stability of compound assessed as trypsin (unknown origin) mediated compound degradation by measuring H-O1WO3LFO6-OH level measured at 15 mins by LCMS analysis; type: protein assay
[26] = biological target: T1, Trypsin; assay: Stability of compound assessed as trypsin (unknown origin) mediated compound degradation by measuring H-O1WO3LFO6-OH level measured at 60 mins by LCMS analysis; type: protein assay
[27] = biological target: T1, Trypsin; assay: Stability of compound assessed as trypsin (unknown origin) mediated compound degradation by measuring H-O1WO3LFO6-OH level measured at 120 mins by LCMS analysis; type: protein assay
[28] = biological target: T1, Trypsin; assay: Stability of compound assessed as trypsin (unknown origin) mediated compound degradation by measuring H-O1WO3LFO6-OH level measured at 270 mins by LCMS analysis; type: protein assay
[29] = biological target: T1, Trypsin; assay: Stability of compound assessed as trypsin (unknown origin) mediated compound degradation by measuring H-O1WO3LFO6O7-OH level measured at 15 mins by LCMS analysis; type: protein assay
[30] = biological target: T1, Trypsin; assay: Stability of compound assessed as trypsin (unknown origin) mediated compound degradation by measuring H-O1WO3LFO6O7-OH level measured at 60 mins by LCMS analysis; type: protein assay
[31] = biological target: T1, Trypsin; assay: Stability of compound assessed as trypsin (unknown origin) mediated compound degradation by measuring H-O1WO3LFO6O7-OH level measured at 120 mins by LCMS analysis; type: protein assay
[32] = biological target: T1, Trypsin; assay: Stability of compound assessed as trypsin (unknown origin) mediated compound degradation by measuring H-O1WO3LFO6O7-OH level measured at 270 mins by LCMS analysis; type: protein assay
[33] = Hemolytic activity in sheep RBC assessed as hemolysis incubated for 30 mins by microplate reader method; type: toxicity, cell-based, Ovis aries, Erythrocyte; conditions: sheep red blood cells (erythrocytes), read-out: Activity
[34] = biological target: T1, Trypsin; assay: Stability of compound assessed as trypsin (unknown origin)-mediated compound degradation measured at 5 mins by LCMS analysis; type: ADME, protein assay

## H-RWRLFRRIGAVLRVL-NH2
[1]
  MIC: 4 µg/mL
[2]
  MIC: 4 µg/mL
[3]
  MIC: 8 µg/mL
[4]
  MIC: 16 µg/mL
[5]
  Activity: Toxic
[6]
  HC50 at 0.5 h: 230 µg/mL
[7]
  selectivity ratio at 30 min: 58
[8]
  selectivity ratio at 30 min: 58
[9]
  selectivity ratio at 30 min: 29
[10]
  selectivity ratio at 30 min: 14

## CC[C@H](C)[C@H](NC(=O)[C@H](CCCN)NC(=O)[C@H](CCCN)NC(=O)[C@H](Cc1ccccc1)NC(=O)[C@H](CC(C)C)NC(=O)[C@H](CCCN)NC(=O)[C@H](Cc1c[nH]c2ccccc12)NC(=O)[C@@H](N)CCCN)C(=O)NCC(=O)N[C@H](C)C(=O)N[C@H](C(=O)N[C@@H](CC(C)C)C(=O)N[C@@H](CCCN)C(=O)N[C@H](C(=O)N[C@@H](CC(C)C)C(N)=O)C(C)C)C(C)C
[11]
  Drug degradation: 98.1%
[12]
  Drug degradation: 89.4%
[13]
  Drug degradation: 79.4%
[14]
  Drug degradation: 58.3%
[15]
  Drug degradation: 0.6%
[16]
  Drug degradation: 2.8%
[17]
  Drug degradation: 5.6%
[18]
  Drug degradation: 12.1%
[19]
  Drug degradation: 0.5%
[20]
  Drug degradation: 1%
[21]
  Drug degradation: 2.2%
[22]
  Drug degradation: 0.9%
[23]
  Drug degradation: 1.6%
[24]
  Drug degradation: 2.5%
[25]
  Drug degradation: 0.9%
[26]
  Drug degradation: 4.3%
[27]
  Drug degradation: 8.4%
[28]
  Drug degradation: 17.3%
[29]
  Drug degradation: 0.4%
[30]
  Drug degradation: 2.1%
[31]
  Drug degradation: 4%
[32]
  Drug degradation: 7.6%

## H-KWKLFRKIGAVLKVL-NH2
[1]
  MIC: 4 µg/mL
[2]
  MIC: 8 µg/mL
[3]
  MIC: 4 µg/mL
[4]
  MIC: 64 µg/mL
[33]
  hemolysis at 0.5 h: 10%
[6]
  HC50 at 0.5 h: 935 µg/mL
[7]
  selectivity ratio at 30 min: 234
[8]
  selectivity ratio at 30 min: 117
[9]
  selectivity ratio at 30 min: 234
[10]
  selectivity ratio at 30 min: 15

## CC[C@H](C)[C@@H]1NC(=O)[C@H](CCCCN)NC(=O)[C@H](CCCCN)NC(=O)[C@H](Cc2ccccc2)NC(=O)[C@H](CC(C)C)NC(=O)[C@H](CCCCN)NC(=O)[C@H](Cc2c[nH]c3ccccc23)NC(=O)[C@H](CCCCN)NC(=O)[C@@H](N)CSSC[C@@H](C(N)=O)NC(=O)[C@H](CC(C)C)NC(=O)[C@H](C(C)C)NC(=O)[C@H](CCCCN)NC(=O)[C@H](CC(C)C)NC(=O)[C@H](C(C)C)NC(=O)[C@H](C)NC(=O)CNC1=O (H-CKWKLFKKIGAVLKVLC-NH2; disulfide 1-17)
[1]
  MIC: 2 µg/mL (≈ 1.01 µM)
[2]
  MIC: 16 µg/mL (≈ 8.1 µM)
[3]
  MIC: 4 µg/mL (≈ 2.03 µM)
[4]
  MIC: 8 µg/mL (≈ 4.05 µM)
[33]
  hemolysis at 0.5 h: 10%
[6]
  HC50 at 0.5 h: > 1000 µg/mL
[34]
  Stability: Stable
[7]
  selectivity ratio at 30 min: > 500
[8]
  selectivity ratio at 30 min: > 63
[9]
  selectivity ratio at 30 min: > 250
[10]
  selectivity ratio at 30 min: > 125

## CC[C@H](C)[C@H](NC(=O)[C@H](CCCN)NC(=O)[C@H](CCCN)NC(=O)[C@H](Cc1ccccc1)NC(=O)[C@H](CC(C)C)NC(=O)[C@H](CCCN)NC(=O)[C@H](Cc1c[nH]c2ccccc12)NC(=O)[C@@H](N)CCCN)C(=O)NCC(=O)N[C@@H](C)C(=O)N[C@H](C(=O)N[C@@H](CC(C)C)C(=O)N[C@@H](CCCN)C(=O)N[C@H](C(=O)N[C@@H](CC(C)C)C(N)=O)C(C)C)C(C)C
[1]
  MIC: 4 µg/mL (≈ 2.35 µM)
[2]
  MIC: 8 µg/mL (≈ 4.71 µM)
[3]
  MIC: 8 µg/mL (≈ 4.71 µM)
[4]
  MIC: 32 µg/mL (≈ 18.8 µM)

## H-RWKLFKKIGAVLKVL-NH2
[1]
  MIC: 4 µg/mL
[2]
  MIC: 8 µg/mL
[3]
  MIC: 4 µg/mL
[4]
  MIC: 32 µg/mL
[33]
  hemolysis at 0.5 h: 10%
[6]
  HC50 at 0.5 h: 450 µg/mL
[7]
  selectivity ratio at 30 min: 113
[8]
  selectivity ratio at 30 min: 56
[9]
  selectivity ratio at 30 min: 113
[10]
  selectivity ratio at 30 min: 14

## H-KWKLFKRIGAVLKVL-NH2
[1]
  MIC: 4 µg/mL
[2]
  MIC: 8 µg/mL
[3]
  MIC: 4 µg/mL
[4]
  MIC: 64 µg/mL
[33]
  hemolysis at 0.5 h: 10%
[6]
  HC50 at 0.5 h: > 1000 µg/mL
[7]
  selectivity ratio at 30 min: > 250
[8]
  selectivity ratio at 30 min: > 125
[9]
  selectivity ratio at 30 min: > 250
[10]
  selectivity ratio at 30 min: > 16

## H-KWKLFKKIGAVLRVL-NH2
[1]
  MIC: 4 µg/mL
[2]
  MIC: 8 µg/mL
[3]
  MIC: 4 µg/mL
[4]
  MIC: 32 µg/mL
[33]
  hemolysis at 0.5 h: 10%
[6]
  HC50 at 0.5 h: 280 µg/mL
[7]
  selectivity ratio at 30 min: 70
[8]
  selectivity ratio at 30 min: 35
[9]
  selectivity ratio at 30 min: 70
[10]
  selectivity ratio at 30 min: 9

## H-KWRLFKKIGAVLKVL-NH2
[1]
  MIC: 4 µg/mL
[2]
  MIC: 8 µg/mL
[3]
  MIC: 4 µg/mL
[4]
  MIC: 32 µg/mL
[33]
  hemolysis at 0.5 h: 10%
[6]
  HC50 at 0.5 h: 750 µg/mL
[7]
  selectivity ratio at 30 min: 188
[8]
  selectivity ratio at 30 min: 94
[9]
  selectivity ratio at 30 min: 188
[10]
  selectivity ratio at 30 min: 23
